Among the data in ChEMBL document CHEMBL1134130, “Carbonic anhydrase inhibitors: 4-sulfamoyl-benzenecarboxamides and 4-chloro-3-sulfamoyl-benzenecarboxamides with strong topical antiglaucoma properties” (Bioorg Med Chem Lett, 2001) are Ki values, retold here.

In one assay the target is T1, Carbonic anhydrase 4 (Bos taurus, UniProt Q95323).
T1 sequence (Q95323 whole entry): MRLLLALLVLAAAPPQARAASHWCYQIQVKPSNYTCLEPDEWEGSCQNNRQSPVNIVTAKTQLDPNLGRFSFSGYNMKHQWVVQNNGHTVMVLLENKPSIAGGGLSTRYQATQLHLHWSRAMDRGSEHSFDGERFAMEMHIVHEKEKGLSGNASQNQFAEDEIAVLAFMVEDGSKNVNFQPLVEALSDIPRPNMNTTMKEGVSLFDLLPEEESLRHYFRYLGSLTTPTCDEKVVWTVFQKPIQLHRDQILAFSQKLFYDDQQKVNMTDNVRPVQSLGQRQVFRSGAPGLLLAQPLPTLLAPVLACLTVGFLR

For the next assay, the target named is Carbonic anhydrase 2 (Homo sapiens, UniProt P00918).
The next assay addresses Carbonic anhydrase 1 (Homo sapiens, UniProt P00915).

Chain of Carbonic anhydrase 1 (P00915 whole entry): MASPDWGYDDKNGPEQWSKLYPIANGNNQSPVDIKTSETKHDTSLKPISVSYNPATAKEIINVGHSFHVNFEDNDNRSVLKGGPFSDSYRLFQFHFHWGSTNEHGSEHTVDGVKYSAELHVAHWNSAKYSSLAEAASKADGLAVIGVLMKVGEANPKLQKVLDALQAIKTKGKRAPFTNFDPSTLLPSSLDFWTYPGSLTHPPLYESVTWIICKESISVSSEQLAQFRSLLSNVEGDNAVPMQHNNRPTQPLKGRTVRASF
Description for Carbonic anhydrase 1: Binding affinity against human carbonic anhydrase I (hCA I)
Description for Carbonic anhydrase 2: Binding affinity against human carbonic anhydrase II (hCA -II)
Description for Carbonic anhydrase 4: Compound was evaluated for binding affinity against bovine carbonic anhydrase IV (bCA IV)

On to `NS(=O)(=O)c1cc(C(=O)N[C@H](C(=O)O)c2ccccc2)ccc1Cl`, for which the Ki on Carbonic anhydrase 4 was found to be 240 nM; on Carbonic anhydrase 2, 160 nM; on Carbonic anhydrase 1, 105 nM.

`NS(=O)(=O)c1ccc(NC(=O)c2ccc(Cl)c(S(N)(=O)=O)c2)cc1`: the results for the Ki on Carbonic anhydrase 4, on Carbonic anhydrase 2 and on Carbonic anhydrase 1 were 66 nM, 30 nM and 24 nM, respectively.

Take `NC(=O)C[C@H](NC(=O)c1ccc(Cl)c(S(N)(=O)=O)c1)C(=O)O`: the Ki at Carbonic anhydrase 4 was determined as 330 nM; at Carbonic anhydrase 2 it was 275 nM; at Carbonic anhydrase 1, 240 nM.

Consider `C[C@H](NC(=O)c1ccc(S(N)(=O)=O)cc1)C(=O)N[C@@H](Cc1ccccc1)C(=O)O`, for which the Ki on Carbonic anhydrase 4 stood at 24 nM; at Carbonic anhydrase 2, 12 nM; on Carbonic anhydrase 1, 320 nM.

`NS(=O)(=O)c1cc(C(=O)NCC(=O)O)ccc1Cl`: the Ki on Carbonic anhydrase 4 was 600 nM; at Carbonic anhydrase 2, 450 nM; on Carbonic anhydrase 1, 210 nM.

In the case of `CC(C)C[C@H](NC(=O)c1ccc(Cl)c(S(N)(=O)=O)c1)C(=O)NCC(=O)O`, the Ki on Carbonic anhydrase 4 was 80 nM; at Carbonic anhydrase 2 it was 51 nM; on Carbonic anhydrase 1, 39 nM.

Turning to `NC(=O)CC[C@H](NC(=O)c1ccc(S(N)(=O)=O)cc1)C(=O)O`, the Ki came to 160 nM at Carbonic anhydrase 4, 75 nM on Carbonic anhydrase 2 and 425 nM at Carbonic anhydrase 1.

For the compound `NS(=O)(=O)c1cc(C(=O)N[C@@H](Cc2ccccc2)C(=O)O)ccc1Cl`, the Ki at Carbonic anhydrase 4 came to 340 nM; at Carbonic anhydrase 2, 250 nM; on Carbonic anhydrase 1 it was 135 nM.

For the compound `NS(=O)(=O)c1cc(C(=O)NCCC(=O)N[C@@H](Cc2cnc[nH]2)C(=O)O)ccc1Cl`, the values for the Ki on Carbonic anhydrase 4, at Carbonic anhydrase 2 and on Carbonic anhydrase 1 were 50 nM, 36 nM and 30 nM, respectively.

`NS(=O)(=O)c1ccc(C(=O)N[C@@H](Cc2cnc[nH]2)C(=O)O)cc1`: the Ki stood at 125 nM on Carbonic anhydrase 4, 40 nM on Carbonic anhydrase 2 and 270 nM on Carbonic anhydrase 1.

Regarding `CSCC[C@H](NC(=O)c1ccc(S(N)(=O)=O)cc1)C(=O)O`, the Ki at Carbonic anhydrase 4 was determined as 150 nM; at Carbonic anhydrase 2, 66 nM; on Carbonic anhydrase 1, 400 nM.

On to `CC[C@H](C)[C@H](NC(=O)c1ccc(Cl)c(S(N)(=O)=O)c1)C(=O)O`, for which the Ki at Carbonic anhydrase 4 worked out at 360 nM; on Carbonic anhydrase 2, 280 nM; on Carbonic anhydrase 1, 150 nM.

As for `NS(=O)(=O)c1ccc(C(=O)N[C@@H](Cc2ccc(O)cc2)C(=O)O)cc1`, the values for the Ki at Carbonic anhydrase 4, on Carbonic anhydrase 2 and on Carbonic anhydrase 1 were 120 nM, 45 nM and 535 nM, respectively.

Consider `NS(=O)(=O)c1ccc(C(=O)NCCCC(=O)O)cc1`, for which the Ki on Carbonic anhydrase 4 worked out at 120 nM; at Carbonic anhydrase 2, 73 nM; at Carbonic anhydrase 1 it was 415 nM.

In the case of `NS(=O)(=O)c1ccc(C(=O)NCC(=O)NCC(=O)O)cc1`, the Ki was found to be 50 nM at Carbonic anhydrase 4, 42 nM at Carbonic anhydrase 2 and 350 nM on Carbonic anhydrase 1.

Regarding `NS(=O)(=O)c1cc(C(=O)N[C@H](C(=O)O)C(O)c2ccccc2)ccc1Cl` (stereo partly specified), the Ki on Carbonic anhydrase 4 was 98 nM; at Carbonic anhydrase 2 it was 62 nM; at Carbonic anhydrase 1, 37 nM.

For `NS(=O)(=O)c1ccc(C(=O)Nc2nnc(S(N)(=O)=O)s2)cc1`, the Ki at Carbonic anhydrase 4 turned out to be 15 nM; at Carbonic anhydrase 2, 3 nM; at Carbonic anhydrase 1 it was 35 nM.

For the compound `NS(=O)(=O)c1cc(C(=O)NCCC(=O)O)ccc1Cl`, the inhibition constant (Ki) on Carbonic anhydrase 4 amounted to 610 nM; on Carbonic anhydrase 2, 450 nM; at Carbonic anhydrase 1, 205 nM.

For `NS(=O)(=O)c1cc(C(=O)N[C@@H](CCC(=O)O)C(=O)O)ccc1Cl`, the Ki on Carbonic anhydrase 4 was 400 nM; on Carbonic anhydrase 2 it was 340 nM; on Carbonic anhydrase 1, 305 nM.

Regarding `CC(C)C[C@H](NC(=O)c1ccc(S(N)(=O)=O)cc1)C(=O)O`, the Ki came to 90 nM at Carbonic anhydrase 4, 53 nM on Carbonic anhydrase 2 and 405 nM on Carbonic anhydrase 1.

Take `NS(=O)(=O)c1ccc(C(=O)NC(C(=O)O)c2ccccc2)cc1` (stereo unspecified): the Ki is 75 nM on Carbonic anhydrase 4, 36 nM on Carbonic anhydrase 2 and 250 nM at Carbonic anhydrase 1.

Take `NS(=O)(=O)c1ccc(C(=O)NC(Cc2ccc(O)c(O)c2)C(=O)O)cc1` (stereo unspecified): the values for the Ki at Carbonic anhydrase 4, on Carbonic anhydrase 2 and at Carbonic anhydrase 1 were 105 nM, 43 nM and 520 nM, respectively.

Take `NS(=O)(=O)c1cc(C(=O)N[C@@H](Cc2c[nH]cn2)C(=O)NCC(=O)O)ccc1Cl`: the figures for the Ki on Carbonic anhydrase 4, on Carbonic anhydrase 2 and on Carbonic anhydrase 1 were 73 nM, 50 nM and 41 nM, respectively.

Turning to `NC(=O)CC[C@H](NC(=O)c1ccc(Cl)c(S(N)(=O)=O)c1)C(=O)O`, the Ki at Carbonic anhydrase 4 worked out at 410 nM; at Carbonic anhydrase 2, 305 nM; at Carbonic anhydrase 1 it was 250 nM.

Regarding `NS(=O)(=O)c1ccc(CNC(=O)c2ccc(Cl)c(S(N)(=O)=O)c2)cc1`, the Ki at Carbonic anhydrase 4 was 61 nM; at Carbonic anhydrase 2 it was 28 nM; on Carbonic anhydrase 1 it was 24 nM.

For the compound `C[C@H](NC(=O)c1ccc(S(N)(=O)=O)cc1)C(=O)O`, the figures for the Ki on Carbonic anhydrase 4, at Carbonic anhydrase 2 and on Carbonic anhydrase 1 were 75 nM, 79 nM and 425 nM, respectively.

As for `NS(=O)(=O)c1ccc(C(=O)N[C@@H](CS)C(=O)O)cc1`, the Ki on Carbonic anhydrase 4 turned out to be 230 nM; on Carbonic anhydrase 2, 110 nM; on Carbonic anhydrase 1, 450 nM.

Turning to `NS(=O)(=O)c1ccc(C(=O)NCCC(=O)N[C@@H](Cc2c[nH]cn2)C(=O)O)cc1`, the Ki on Carbonic anhydrase 4 was 21 nM; on Carbonic anhydrase 2, 16 nM; on Carbonic anhydrase 1, 270 nM.

As to `NS(=O)(=O)c1cc(C(=O)N[C@@H](CC(=O)O)C(=O)O)ccc1Cl`, the Ki on Carbonic anhydrase 4 amounted to 355 nM; on Carbonic anhydrase 2 it was 300 nM; on Carbonic anhydrase 1, 285 nM.

`NS(=O)(=O)c1ccc(C(=O)N[C@@H](CCC(=O)O)C(=O)O)cc1`: the Ki at Carbonic anhydrase 4 turned out to be 160 nM; on Carbonic anhydrase 2 it was 74 nM; at Carbonic anhydrase 1, 430 nM.

For the compound `NS(=O)(=O)c1ccc(C(=O)N[C@@H](CC(=O)O)C(=O)O)cc1`, the Ki turned out to be 150 nM on Carbonic anhydrase 4, 73 nM on Carbonic anhydrase 2 and 425 nM on Carbonic anhydrase 1.

Regarding `C[C@@H](O)[C@H](NC(=O)c1ccc(Cl)c(S(N)(=O)=O)c1)C(=O)O`, the Ki stood at 735 nM on Carbonic anhydrase 4, 520 nM on Carbonic anhydrase 2 and 320 nM on Carbonic anhydrase 1.

Regarding `NC(=O)C[C@H](NC(=O)c1ccc(S(N)(=O)=O)cc1)C(=O)O`, the Ki was 155 nM at Carbonic anhydrase 4, 72 nM at Carbonic anhydrase 2 and 410 nM on Carbonic anhydrase 1.

As to `CSCC[C@H](NC(=O)c1ccc(Cl)c(S(N)(=O)=O)c1)C(=O)O`, the Ki at Carbonic anhydrase 4 came to 650 nM; on Carbonic anhydrase 2 it was 410 nM; on Carbonic anhydrase 1, 240 nM.

As to `NS(=O)(=O)c1cc(C(=O)N[C@@H](CO)C(=O)O)ccc1Cl`, the results for the Ki on Carbonic anhydrase 4, on Carbonic anhydrase 2 and on Carbonic anhydrase 1 were 395 nM, 290 nM and 170 nM, respectively.

As to `NS(=O)(=O)c1cc(C(=O)NCCCC(=O)O)ccc1Cl`, the Ki was found to be 540 nM at Carbonic anhydrase 4, 400 nM on Carbonic anhydrase 2 and 200 nM on Carbonic anhydrase 1.

Regarding `NS(=O)(=O)c1cc(C(=O)NCC(=O)NCC(=O)O)ccc1Cl`, the Ki was 170 nM on Carbonic anhydrase 4, 85 nM at Carbonic anhydrase 2 and 69 nM at Carbonic anhydrase 1.

Turning to `NS(=O)(=O)c1cc(C(=O)NC(Cc2ccc(O)c(O)c2)C(=O)O)ccc1Cl` (stereo unspecified), the results for the Ki at Carbonic anhydrase 4, at Carbonic anhydrase 2 and at Carbonic anhydrase 1 were 330 nM, 240 nM and 100 nM, respectively.

For `NS(=O)(=O)c1ccc(CNC(=O)c2ccc(S(N)(=O)=O)cc2)cc1`, the Ki at Carbonic anhydrase 4 came out at 16 nM; on Carbonic anhydrase 2 it was 7 nM; at Carbonic anhydrase 1, 40 nM.

In the case of `NS(=O)(=O)c1cc(C(=O)N[C@@H](CS)C(=O)O)ccc1Cl`, the Ki on Carbonic anhydrase 4 was 720 nM; on Carbonic anhydrase 2, 490 nM; at Carbonic anhydrase 1, 300 nM.

In the case of `CC(C)[C@H](NC(=O)c1ccc(Cl)c(S(N)(=O)=O)c1)C(=O)O`, the Ki came out at 360 nM on Carbonic anhydrase 4, 330 nM on Carbonic anhydrase 2 and 130 nM on Carbonic anhydrase 1.

Regarding `CC(C)[C@H](NC(=O)c1ccc(S(N)(=O)=O)cc1)C(=O)O`, the values for the Ki at Carbonic anhydrase 4, at Carbonic anhydrase 2 and on Carbonic anhydrase 1 were 150 nM, 74 nM and 420 nM, respectively.

Take `NS(=O)(=O)c1ccc(C(=O)N[C@H](C(=O)O)C(O)c2ccccc2)cc1` (stereo partly specified): the Ki at Carbonic anhydrase 4 turned out to be 62 nM; on Carbonic anhydrase 2 it was 21 nM; at Carbonic anhydrase 1 it was 54 nM.

Take `C[C@H](NC(=O)c1ccc(Cl)c(S(N)(=O)=O)c1)C(=O)O`: the Ki at Carbonic anhydrase 4 amounted to 475 nM; at Carbonic anhydrase 2, 420 nM; at Carbonic anhydrase 1 it was 175 nM.

`CC(C)C[C@H](NC(=O)c1ccc(Cl)c(S(N)(=O)=O)c1)C(=O)O`: the Ki at Carbonic anhydrase 4 is 330 nM; at Carbonic anhydrase 2 it was 305 nM; at Carbonic anhydrase 1, 125 nM.

On to `NS(=O)(=O)c1ccc(C(=O)N[C@@H](Cc2c[nH]cn2)C(=O)NCC(=O)O)cc1`, for which the values for the Ki at Carbonic anhydrase 4, at Carbonic anhydrase 2 and on Carbonic anhydrase 1 were 19 nM, 10 nM and 380 nM, respectively.

As to `C[C@H](NC(=O)c1ccc(Cl)c(S(N)(=O)=O)c1)C(=O)N[C@@H](Cc1ccccc1)C(=O)O`, the Ki at Carbonic anhydrase 4 amounted to 72 nM; on Carbonic anhydrase 2 it was 44 nM; at Carbonic anhydrase 1 it was 36 nM.

`NS(=O)(=O)c1cc(C(=O)N[C@@H](Cc2c[nH]cn2)C(=O)N[C@@H](Cc2ccccc2)C(=O)O)ccc1Cl`: the Ki is 45 nM on Carbonic anhydrase 4, 38 nM on Carbonic anhydrase 2 and 27 nM on Carbonic anhydrase 1.

For the compound `NS(=O)(=O)c1ccc(C(=O)N[C@@H](CO)C(=O)O)cc1`, the values for the Ki on Carbonic anhydrase 4, at Carbonic anhydrase 2 and on Carbonic anhydrase 1 were 325 nM, 120 nM and 440 nM, respectively.

Take `NS(=O)(=O)c1cc(C(=O)Nc2nnc(S)s2)ccc1Cl`: the Ki on Carbonic anhydrase 4 turned out to be 21 nM; on Carbonic anhydrase 2, 11 nM; on Carbonic anhydrase 1 it was 15 nM.

Consider `NS(=O)(=O)c1ccc(CCNC(=O)c2ccc(Cl)c(S(N)(=O)=O)c2)cc1`, for which the figures for the Ki on Carbonic anhydrase 4, at Carbonic anhydrase 2 and on Carbonic anhydrase 1 were 63 nM, 26 nM and 21 nM, respectively.

Turning to `NS(=O)(=O)c1ccc(C(=O)N[C@@H](Cc2ccccc2)C(=O)O)cc1`, the Ki on Carbonic anhydrase 4 is 130 nM; at Carbonic anhydrase 2 it was 52 nM; at Carbonic anhydrase 1 it was 560 nM.
